Laboratory results: US9980943B2, “Methods of treating muscular dystrophy” (BOARD OF REGENTS OF THE NEVADA SYSTEM OF HIGHER EDUCATION, …, priority 2013, dated 2018)
Read-outs that look alike come from different tables or passages of the source.

Tested on: α7 integrin (LacZ reporter in α7LacZ+/− myoblasts)
Test: qHTS of the LOPAC library and MLSMR (online screen, α7LacZ+/− myoblasts)
Conditions: for activation at 0.307 µM / activation at 1.53 µM / activation at 7.66 µM / activation at 38.3 µM / Emax / EC50: Mus musculus, Myoblast; for activation at 0.307 µM: read-out: Activity at 0.307 uM [%] **; for activation at 1.53 µM: read-out: Activity at 1.530 uM [%] **; for activation at 7.66 µM: read-out: Activity at 7.660 uM [%] **; for activation at 38.3 µM: read-out: Activity at 38.30uM [%] **; for EC50: read-out: Fit LogAC50 (converted)
[1] = 48 h, read-out: Fit Infinite Activity [%]

| SMILES | activation at 0.307 µM (48 h) | activation at 1.53 µM (48 h) | activation at 7.66 µM (48 h) | activation at 38.3 µM (48 h) | Emax [1] | EC50 | Emax (read-out: Max Response [%]) | Score (Table 8 Compound data) | Curve Description | Score |
| --- | --- | --- | --- | --- | --- | --- | --- | --- | --- | --- |
| Cc1cccc(OCc2nc(C#N)c(N3CCCC3)o2)c1 [Compound 2] | 9.52% | 57% | 175% | 223% | 231% | 3.55 µM |  |  |  |  |
| C[C@H]1CNC(=O)c2c(C(=O)Nc3ccc(CNC(=O)OC(C)(C)C)cc3)ncn21 [Compound 88] | 12.6% | 21.8% | 50.5% | 81.8% | 98.4% | 8.91 µM | 81.8% |  |  |  |
| CC(C)N(CCO)C(=O)CCc1nnc(CCCc2ccccc2)o1 [Compound 199] | 0% | 7.61% | 32.2% | 78.1% | 96.2% |  | 78.1% |  |  |  |
| CN(C)C1(C/N=C/c2cc(Cl)cc([N+](=O)[O-])c2O)CCCCC1 [Compound 101] | -14.2% | -11.6% | 43.3% | 104% | 116% | 8.91 µM | 104% | 43 |  |  |
| O=C(NCCCn1ccnc1)/C(=C/c1cccs1)NC(=O)c1ccco1 [Compound 124] | -19.2% | -7.39% | 35.5% | 85.9% | 103% |  | 85.9% |  |  |  |
| COC(=O)Cc1c(O)ccn(Cc2ccc3c(c2)OCO3)c1=O [Compound 80] | -4.78% | 4.56% | 65.9% | 146% | 169% | 10 µM | 146% |  |  |  |
| Cc1nc2c([nH]1)OC(N)=C(C#N)C21CCN(Cc2ccccc2)CC1 [Compound 132] | 11.1% | 13.8% | 23% | 133% | 133% |  | 133% |  | Partial |  |
| COc1ccccc1C(=O)NCCOc1ccc(C(C)(C)C)cc1 [Compound 168] |  | 0% | 35.8% | 77.8% | 82.9% |  | 77.8% |  |  |  |
| CC(C)NC(=O)CN1CCN(C(=O)CCl)CC1 [Compound 62] | -21.4% | -18% | 77.9% | 155% | 162% | 7.08 µM | 155% |  |  |  |
| COc1cc2c(cc1OC)C(NC(=O)C(F)(F)F)C/C2=N\O (stereo not drawn) [Compound 193] | 3.74% | 2% | 17.9% | 91.5% | 92.3% |  | 91.5% |  |  |  |
| N#Cc1ccc(Sc2nc3ccccc3[nH]2)cc1C#N [Compound 218] | 14% | 13.1% | 29.8% | 71.5% | 71.8% | 10 µM | 71.5% |  |  |  |
| CS(=O)(=O)N(Cc1ccc(C(=O)NC2CCCC2)cc1)c1ccccc1 [Compound 63] | -3.95% | 2.24% | 57.8% | 196% | 199% | 10 µM | 196% |  |  |  |
| COC(=O)C(=O)C/C(=N/Nc1ncnc2ccccc12)c1ccc(Cl)cc1 [Compound 18] | 7.75% | 30.6% | 358% |  |  | 10 µM |  |  |  |  |
| CC(C)c1ccc(NC(=O)CN2C(=O)c3ccccc3S2(=O)=O)cc1 [Compound 150] | 0% | 0.16% | 15.1% | 67.1% | 67.4% | 10 µM | 67.1% |  |  |  |
| Cc1c(C(=O)N2CCCCC2)c(S(=O)(=O)Nc2cccc(Br)c2)c(C)n1C [Compound 155] | -32.1% | -31.8% | -9.12% | 60.5% | 60.9% | 10 µM | 60.5% |  |  |  |
| CCCN(C(=O)c1ccc(S(=O)(=O)N2CCCC2)cc1)C1CCS(=O)(=O)C1 (stereo not drawn) [Compound 89] | -9.99% | -0.297% | 45.6% | 74.1% | 75.3% | 5.01 µM | 74.1% |  |  |  |
| COc1ccc(N(CC(=O)NCCC(C)C)C(=O)c2snc(C(=O)NC3CCCCC3)c2N)c(OC)c1 [Compound 98] | -0.0399% | 0.105% | 28.9% | 125% | 126% | 10 µM | 125% |  |  |  |
| N=C(NOC(=O)COc1cc(Cl)c(Cl)cc1Cl)c1ccncc1 [Compound 125] | 0% | 9.26% | 50.4% | 108% | 134% |  | 108% |  |  |  |
| Cc1ccc(NP(=O)(Nc2ccc(C)cc2)Nc2ccc(C)cc2)cc1 [Compound 10] | 0% | 11.4% | 94.1% | 102% | 102% | 3.16 µM |  |  |  |  |
| C=CCc1c(C)nc(-c2ccccc2)nc1N/N=C/c1ccccc1 [Compound 213] | 0% | 6.49% | 41.1% | 90.1% | 109% |  | 90.1% |  |  |  |
| COc1ccc(CCNC(=O)c2cc(-c3cc(C)ccc3O)n[nH]2)cc1OC [Compound 217] | 10.4% | 9.29% | 27.5% | 65.2% | 66.2% | 10 µM | 65.2% |  |  |  |
| Cc1ccc(NC(=O)COc2ccccc2CNC(C)(C)CC(C)(C)C)cc1 [Compound 131] | 10.7% | 7.12% | 16.2% | 182% | 184% |  | 182% |  |  |  |
| Cc1ccc(-c2csnn2)cc1 [Compound 170] | 2.36% | 5.33% | 22.2% | 87.6% | 87.8% | 10 µM | 87.6% |  |  |  |
| CCOC(=O)C1=C(NC(=O)c2ccc(OC)c(S(=O)(=O)N3CCCCC3C)c2)Nc2ccccc2N=C1CC (stereo not drawn) [Compound 45] | -16.6% | 0.0514% | 18.6% | 414% | 420% | 14.1 µM | 414% |  |  | 47 |
| COc1ccc(/C=C(\NC(=O)c2ccc(C)cc2)C(=O)Nc2ccc(C(=O)O)cc2)cc1 [Compound 160] | -2.5% | -3.36% | 16% | 99.8% | 101% |  | 99.8% |  |  |  |
| CCCCN(CCCC)CCNC(=O)c1cn(C)c2ccc(S(=O)(=O)N(C)C3CCCCC3)cc2c1=O [Compound 157] | -0.706% | -3.27% | 17.7% | 67.5% | 68.2% | 10 µM | 67.5% | 42 |  |  |
